What was measured:
Format in all cases: cell-based, human
[1] = tested on: T24 bladder cell carcinoma; assay: Relative colony forming efficiency after antisense treatment (Table 13); settings: 0.2 μM antisense oligodeoxyribonucleotide phosphorothioate; T24 cells; averages of 2-8 determinations
[2] = tested on: MDA-MB-231 breast cell adenocarcinoma; assay: Relative colony forming efficiency after antisense treatment (Table 13, FIG. 11, FIG. 12); settings: 0.2 μM antisense oligodeoxyribonucleotide phosphorothioate; MDA-MB-231 cells; averages of 2-8 determinations
Procedure: Colony forming efficiency was determined as previously reported [Huang and Wright, 1994]. The cells were cultured for 24 hours at 37° C. in growth medium with 10% fetal bovine serum. The cells were washed in 5 ml phosphate buffered saline, pH 7.2, once prior to lipofectin+/−oligonucleotide treatment.
The oligonucleotides being tested were added to cell cultures in the presence of 2.5 μg of DOTMA/DOPE (Lipofectin; Life Technologies, Inc.) for four hours. The oligonucleotide was tested at 0.2 μM unless otherwise indicated. Controls were the cultures treated with lipofectin but without the oligonucleotide. After 4 hours the medium containing the oligonucleotide was removed and washed with 5 ml of growth medium. The cells were then cultured in growth medium containing 10% fetal bovine serum for seven to ten days. Surviving cells were visualized by methylene blue staining, and colonies were scored. In some experiments cell aliquotes were removed from the culture and viability was determined using the trypan blue exclusion test [Phillips, 1973]. Results were analyzed as percent of surviving cells compared to control cells.
To test the antisense effects of many of these sequences as phosphorthioate deoxyribonucleotides, they were examined in relative colony forming experiments performed with a series of human tumor cell lines. Many of these antisense constructs, as predicted, are potent inhibitors of human tumor cell proliferation. For results obtained with cancer cells derived from the bladder, breast, lung, colon, pancreas, prostate, liver and cervix, see Table 13. In addition, in vivo studies with AS-II-626-20 were undertaken in C3H/HeN mice as reported in Table 14 and show a significant reduction in metastasis in the antisense treated mice.
Colony forming ability of MDA-MB-231 human breast cancer cells treated with 28 different antisense oligonucleotides was estimated as previously described (Choy et al., 1988). Aliquots of cell suspension were seeded into 60 mm Petri dishes and incubated at 37° C. overnight in α-MEM medium supplemented with 10% fetal bovine serum. Cells were washed in 5 ml of phosphate buffered saline, pH 7.2, prior to 0.2 μM antisense/lipofectin treatments for 4 hours. The media containing the antisense oligonucleotides were removed and cells were washed once and cultured in growth medium for 7 to 10 days. Colonies were stained with methylene blue and scored as described (Choy et al., 1988; Huang and Wright 1994). Percent inhibition was calculated by comparison with the number of colonies present in cultures grown in the absence of antisense oligonucleotides. All experiments were performed in quadruplicate. FIG. 11 is a graph of the percentage inhibition of colony formation by treatment with the various antisense oligonucleotides.
Colony forming ability of various human tumor cell lines was estimated by determining relative colony forming efficiencies (Choy et al., 1988). Cells from various cell lines were washed in 5 ml of phosphate buffered saline, pH 7.2. The cells were treated with 0.2 μM AS-I-618-20 antisense oligonucleotide/lipofectin for 4 hours. The medium containing the antisense oligonucleotide was then removed and the cells were gently washed with 5 ml of growth medium. The cells were cultured in growth medium containing 10% fetal bovine serum for seven to ten days. […] The following human tumor cell lines were evaluated: HepG2 (liver), SK-OV-3 (ovary), U87 (brain), A2058 (melanoma), H460 (lung), MDA-MB-231 (breast) and AsPC-1 (pancreas).

[3] = tested on: MIA PaCa-2 pancreatic cell carcinoma; assay: Relative colony forming efficiency after antisense treatment (Table 13); settings: 0.2 μM antisense oligodeoxyribonucleotide phosphorothioate; MIA PaCa-2 cells; averages of 2-8 determinations
A549 lung cell carcinoma = assay: as above; settings: 0.2 μM antisense oligodeoxyribonucleotide phosphorothioate; A549 cells; averages of 2-8 determinations
[4] = tested on: PC-3 prostrate cell adenocarcinoma; assay: as above; settings: 0.2 μM antisense oligodeoxyribonucleotide phosphorothioate; PC-3 cells; averages of 2-8 determinations

Sequence	Reduced relative colony forming efficiency, expressed as % inhibition, T24 [1]	Reduced relative colony forming efficiency, expressed as % inhibition, MDA-MB-231 [2]	Reduced relative colony forming efficiency, expressed as % inhibition, MIA PaCa-2 [3]	Reduced relative colony forming efficiency, expressed as % inhibition, A549 (A549 lung cell carcinoma)	Reduced relative colony forming efficiency, expressed as % inhibition, PC-3 [4]
TGGCTGTGCTGGTTAAAGGA (DNA, all phosphorothioate, methylation of C not given here) [AS-II-1659-20]	74.09%	42.86%	42.54%	54.7%	81.56%
ATTAAAATCTGCGTTGAAGC (DNA, all phosphorothioate, methylation of C not given here) [AS-II-1700-20]	70.94%	30.75%	34.52%	77.28%	90.63%
TGGCACCAACTGACTAATAT (antisense; DNA, all phosphorothioate, methylation of C not given here) [AS-II-1976-20]		89.6%			88.16%
TATCGCCGCCGTGAGTACAA (DNA, all phosphorothioate, methylation of C not given here) [AS-II-1768-20]	74.56%	91.56%	60.36%	86.8%	86.36%
GGCCCAGATCACCCCTAAAT (antisense; DNA, all phosphorothioate, methylation of C not given here) [AS-II-2128-20]	83.74%	91.3%	39.23%	87.31%	88.89%
CAGAATATCGACGCAAAAGA (antisense; DNA, all phosphorothioate, methylation of C not given here) [AS-II-909-20]	78.57%	45.96%	46.13%	78.68%	84.86%
AAACGGCTTCTCACACATAT (antisense; DNA, all phosphorothioate, methylation of C not given here) [AS-II-2151-20]	79.83%	95.14%	62.15%	79.19%	84.86%
TCGCCTACTCTCTTCTCAAA (DNA, all phosphorothioate, methylation of C not given here) [AS-II-1278-20]	65.42%	90.68%	57.05%		85.31%
TTTTAACTGGCTGTGCTGGT (DNA, all phosphorothioate, methylation of C not given here) [AS-II-1666-20]	71.71%	26.71%	49.72%	54.82%	86.06%

From patent US7405205B2, “Antitumor antisense sequences directed against R1 and R2 components of ribonucleotide reductase” (Lorus Therapeutics Inc., priority 1996, dated 2008)
